Values after ≈ are worked out from the molar mass of the structure shown. Like-named read-outs stand apart in the source and are kept apart here.
Key:
in vitro [1] = assay type: in vitro ADME; conditions: mouse
HBV genotypes A–H = experiment: HBV genotype coverage in HBV transfected Huh-7 cells (HBsAg); conditions: Hepatitis B virus
HBV pgRNA and preS/S RNA = experiment: Northern blot of intracellular HBV RNA in HepG2.2.15 cells; assay type: cell-based; conditions: Hepatitis B virus, HepG2.2.15, 48 h
HBV [2] = experiment: Effective concentration mediating 90% inhibition (EC90), system not given; assay type: cell-based; conditions: Hepatitis B virus; used for comparison with unbound concentrations; cell system not stated
HSV-1/HSV-2 = experiment: Antiviral selectivity panel: HSV-1/HSV-2; assay type: cell-based, herpes simplex virus-1/herpes simplex virus-2; conditions: MRC5; MRC-5 (human lung)
HBV [3] = experiment: HBV life cycle analysis in HepG2.2.15 cells; assay type: cell-based, hepatitis B virus; conditions: ETV 1 μM, GLS4 1 μM, AB-161 100 nM
Wild-type HBV = experiment: HBV polymerase variant phenotyping in Huh-7: wild-type; conditions: Hepatitis B virus
Beagle dogs = experiment: 13-week repeat-dose toxicity study in dogs; assay type: in vivo; design: key to Testis: Degeneration/Atrophy, Minimal, incidence / Testis: Degeneration/Atrophy, Mild, incidence / Testis: Degeneration/Atrophy, Moderate, incidence / Epididymis: Cellular debris, Minimal, incidence / Epididymis: Cellular debris, Mild, incidence / Epididymis: Cellularity, decreased; sperm, Minimal, incidence / Epididymis: Cellularity, decreased; sperm, Mild, incidence / Epididymis: Cellularity, decreased; sperm, Marked, incidence: - = no AB-161-related findings
HRV = experiment: Antiviral selectivity panel: HRV; assay type: cell-based; conditions: Human rhinovirus sp., HEp-2; HEp2 (human epithelial)
[4] = test system: HBsAg expressed from integrated HBV; experiment: HBsAg from integrated HBV in PLC/PRF/5 cells; assay type: cell-based; conditions: Hepatitis B virus, PLC-PRF-5, read-out: HBsAg EC50
in vitro [5] = assay type: in vitro ADME; conditions: rat, plasma
[6] = test system: HBsAg with wildtype HBV PRE; experiment: HBV PRE variant phenotyping in Huh-7: wild-type PRE plasmid (HBsAg); assay type: cell-based; conditions: Hepatitis B virus, Huh-7, 120 h, read-out: HBsAg EC50
[7] = Cytotoxicity in HepG2-hNTCP cells; assay type: cell-based; conditions: human, HBV-infected HepG2-hNTCP-C4 cells
HBV (AAV-HBV) = experiment: AAV-HBV mouse model, serum HBsAg; conditions: AAV-HBV mice; for mean reduction of serum HBsAg compared to pre-dose baseline: 14 days
in vitro [8] = conditions: bovine
HIV = experiment: Antiviral selectivity panel: HIV; assay type: cell-based; conditions: Human immunodeficiency virus 1; CEM-22 (human T lymphoblast)
HBV [9] = experiment: HBV antiviral assay in HepG2.2.15 cells (HBsAg/HBeAg CLIA, secreted HBV DNA PCR); assay type: cell-based; conditions: Hepatitis B virus, HepG2.2.15, genotype D
[10] = male, C57BL/6J, mouse, in vivo, 24 h
[11] = test system: HBsAg with SLα deletion mutant (ΔSLα) PRE; experiment: HBV PRE variant phenotyping in Huh-7: ΔSLα plasmid (HBsAg); assay type: cell-based; conditions: Hepatitis B virus, Huh-7, 120 h, read-out: HBsAg EC50
[12] = male dogs, 10 mg/kg/day, end of main study (days 97–100)
[13] = male dogs, 10 mg/kg/day, end of main study, 4 examined
[14] = male dogs, 30 mg/kg/day, end of main study (days 97–100)
[15] = male dogs, 30 mg/kg/day, end of main study, 3 examined
[16] = male dogs, 100 mg/kg/day, end of main study (days 97–100)
[17] = male dogs, 100 mg/kg/day, end of main study, 4 examined
[18] = male dogs, 100 mg/kg/day, end of recovery (Day 120)
[19] = male dogs, 100 mg/kg/day, end of recovery (Day 120), 2 examined

Question: What does the source list for `COc1cc(OC(F)F)c2nc3c(n2c1)C[C@@H](C(C)(C)C)c1cc(C(=O)O)c(=O)[nH]c1-3` [AB-161]?
Answer: AB-161 estimated to be free (in vitro [1]; 6 h, 500 ng/mL): 2.4%; fraction unbound at 6 h, 500 ng/mL (in vitro [1]; plasma): 0.024; fraction-unbound factor (in vitro [1]; plasma, 6 h, 500 ng/mL): 0.024; EC50 (HBV genotypes A–H; Huh-7, read-out: HBsAg EC50, HBV transfected Huh-7, range over genotypes A–H): 2.1 to 4.5 nM; EC50 (HBV genotypes A–H; Huh-7, read-out: HBsAg EC50, Huh-7, HBV genotype A): 3 ± 0.8 nM; EC50 (HBV genotypes A–H; Huh-7, read-out: HBsAg EC50, Huh-7, HBV genotype B): 2.6 ± 1.4 nM; EC50 (HBV genotypes A–H; Huh-7, read-out: HBsAg EC50, Huh-7, HBV genotype C): 2.3 ± 0.6 nM; EC50 (HBV genotypes A–H; Huh-7, read-out: HBsAg EC50, Huh-7, HBV genotype D): 4.5 ± 2.8 nM; EC50 (HBV genotypes A–H; Huh-7, read-out: HBsAg EC50, Huh-7, HBV genotype E): 2.5 ± 0.9 nM; EC50 (HBV genotypes A–H; Huh-7, read-out: HBsAg EC50, Huh-7, HBV genotype F): 3.3 ± 2.6 nM; EC50 (HBV genotypes A–H; Huh-7, read-out: HBsAg EC50, Huh-7, HBV genotype H-1): 2.4 ± 0.5 nM; EC50 (HBV genotypes A–H; Huh-7, read-out: HBsAg EC50, Huh-7, HBV genotype H-2): 2.1 ± 0.9 nM; EC50 (HBV pgRNA and preS/S RNA; read-out: EC50, steady state level of pgRNA (3.5 kb)): 6.9 to 21 nM; EC50 (HBV pgRNA and preS/S RNA; read-out: EC50, steady state level of preS/S RNA (2.4/2.1 kb)): 2.3 to 6.9 nM; EC90 (HBV [2]): 0.0128 µg/mL (≈ 0.0295 µM); EC50 (HSV-1/HSV-2): > 30000 nM; HBV DNA replication (HBV [3]): inhibited; intracellular HBV RNA (pgRNA, preS/S RNA) (HBV [3]): inhibited; viral proteins: HBV core and capsid assembly (HBV [3]): inhibited; EC50 (Wild-type HBV; Huh-7, read-out: EC50 (HBsAg)): 1.9 to 4.9 nM; EC50 (Wild-type HBV; Huh-7, read-out: HBsAg, EC50): 4.9 nM; motor nerve conduction (Beagle dogs; dogs): No differences from baseline or time-matched controls; animals with persisting peroneal sensory NCV delays (Beagle dogs; dogs, 100 mg/kg/day recovery cohort, day 119): 2 of 4; animals with peroneal sensory NCV delays (Beagle dogs; dogs, 100 mg/kg/day, days 71 to 72): 4 of 12; food consumption, electrocardiography, neurological examinations, urinalysis (Beagle dogs; dogs, 10, 30, or 100 mg/kg/day): no AB-161-related effects; reproductive safety findings (Beagle dogs; female dogs, 13-week administration, all doses): no reproductive safety findings; Testis: Degeneration/Atrophy, incidence (Beagle dogs; male dogs, 10 mg/kg/day, end of main study (day 97–100), 4 examined): 0; Testis weight, % of body weight (Beagle dogs; [12]): −9.38 percent difference from the control group means; Testis weight, % of brain weight (Beagle dogs; [12]): −16.13 percent difference from the control group means; Testis weight, absolute value (Beagle dogs; [12]): −18.03 percent difference from the control group means; Epididymis: Cellular debris, Mild, incidence (Beagle dogs; [13]): -; Epididymis: Cellular debris, Minimal, incidence (Beagle dogs; [13]): -; Epididymis: Cellular debris, incidence (Beagle dogs; [13]): 0; Epididymis: Cellularity, decreased; sperm, Marked, incidence (Beagle dogs; [13]): -; Epididymis: Cellularity, decreased; sperm, Mild, incidence (Beagle dogs; [13]): -; Epididymis: Cellularity, decreased; sperm, Minimal, incidence (Beagle dogs; [13]): -; Epididymis: Cellularity, decreased; sperm, incidence (Beagle dogs; [13]): 0; Testis: Degeneration/Atrophy, Mild, incidence (Beagle dogs; [13]): -; Testis: Degeneration/Atrophy, Minimal, incidence (Beagle dogs; [13]): -; Testis: Degeneration/Atrophy, Moderate, incidence (Beagle dogs; [13]): -; Testis weight, % of body weight (Beagle dogs; [14]): −21.93 percent difference from the control group means; Testis weight, % of brain weight (Beagle dogs; [14]): −30.73 percent difference from the control group means; Testis weight, absolute value (Beagle dogs; [14]): −34.17 percent difference from the control group means; Epididymis: Cellular debris, Mild, incidence (Beagle dogs; [15]): 2; Epididymis: Cellular debris, Minimal, incidence (Beagle dogs; [15]): 0; Epididymis: Cellular debris, incidence (Beagle dogs; [15]): 2; Epididymis: Cellularity, decreased; sperm, Marked, incidence (Beagle dogs; [15]): 0; Epididymis: Cellularity, decreased; sperm, Mild, incidence (Beagle dogs; [15]): 2; Epididymis: Cellularity, decreased; sperm, Minimal, incidence (Beagle dogs; [15]): 0; Epididymis: Cellularity, decreased; sperm, incidence (Beagle dogs; [15]): 2; Testis: Degeneration/Atrophy, Mild, incidence (Beagle dogs; [15]): 1; Testis: Degeneration/Atrophy, Minimal, incidence (Beagle dogs; [15]): 1; Testis: Degeneration/Atrophy, Moderate, incidence (Beagle dogs; [15]): 0; Testis: Degeneration/Atrophy, incidence (Beagle dogs; [15]): 2; Testis weight, % of body weight (Beagle dogs; [16]): −12.18 percent difference from the control group means; Testis weight, % of brain weight (Beagle dogs; [16]): −16.10 percent difference from the control group means; Testis weight, absolute value (Beagle dogs; [16]): −20.62 percent difference from the control group means; Epididymis: Cellular debris, Mild, incidence (Beagle dogs; [17]): 2; Epididymis: Cellular debris, Minimal, incidence (Beagle dogs; [17]): 2; Epididymis: Cellular debris, incidence (Beagle dogs; [17]): 4; Epididymis: Cellularity, decreased; sperm, Marked, incidence (Beagle dogs; [17]): 1; Epididymis: Cellularity, decreased; sperm, Mild, incidence (Beagle dogs; [17]): 2; Epididymis: Cellularity, decreased; sperm, Minimal, incidence (Beagle dogs; [17]): 1; Epididymis: Cellularity, decreased; sperm, incidence (Beagle dogs; [17]): 4; Testis: Degeneration/Atrophy, Mild, incidence (Beagle dogs; [17]): 1; Testis: Degeneration/Atrophy, Minimal, incidence (Beagle dogs; [17]): 2; Testis: Degeneration/Atrophy, Moderate, incidence (Beagle dogs; [17]): 1; Testis: Degeneration/Atrophy, incidence (Beagle dogs; [17]): 4; Testis weight, % of body weight (Beagle dogs; [18]): −37.79 percent difference from the control group means; Testis weight, % of brain weight (Beagle dogs; [18]): −43.49 percent difference from the control group means; Testis weight, absolute value (Beagle dogs; [18]): −42.84 percent difference from the control group means; Epididymis: Cellular debris, Mild, incidence (Beagle dogs; [19]): (2) 2 2 2 2; Epididymis: Cellular debris, incidence (Beagle dogs; [19]): (2) 2 2 2 2; Epididymis: Cellularity, decreased; sperm, Moderate, incidence (Beagle dogs; [19]): (2) 2 2 2 2; Epididymis: Cellularity, decreased; sperm, incidence (Beagle dogs; [19]): (2) 2 2 2 2; Testis: Degeneration/Atrophy, Moderate, incidence (Beagle dogs; [19]): (2) 2 2; Testis: Degeneration/Atrophy, incidence (Beagle dogs; [19]): (2) 2 2; testis microscopic finding (Beagle dogs; male dogs, 30 and 100 mg/kg/day at terminal euthanasia, persisted at end of recovery at 100 mg/kg/day): degeneration/atrophy in the testis was noted; EC50 (HRV): > 30000 nM; EC50 [4]: 5.9 ± 2.5 nM; fraction unbound at 6 h, 500 ng/mL (in vitro [5]): 0.056; EC50 [6]: 2.5 nM; CC50 [7]: > 10000 nM; mean reduction of serum HBsAg compared to pre-dose baseline (HBV (AAV-HBV); 0.3 mg/kg oral QD): 0.13 log10; mean reduction of serum HBsAg compared to pre-dose baseline (HBV (AAV-HBV); 1 mg/kg oral QD): 0.34 log10; mean reduction of serum HBsAg compared to pre-dose baseline (HBV (AAV-HBV); 10 mg/kg oral QD): 0.71 log10; mean reduction of serum HBsAg compared to pre-dose baseline (HBV (AAV-HBV); 30 mg/kg oral QD): 0.94 log10; earliest time at which inhibition of serum HBsAg was observed (HBV (AAV-HBV); after initiation of dosing): 4 days; mean maximal reduction of serum HBsAg compared to pre-dose baseline (HBV (AAV-HBV); oral QD 14 days, dose range 0.3 to 30 mg/kg): 0.94 ± 0.56 log10; CC50 (in vitro [8]): > 30000 nM; EC50 (HIV): > 30000 nM; EC50 (HBV [9]; 144 h, 6-day incubation, read-out: HBsAg EC50): 2.3 ± 1 nM; EC50 (HBV [9]; secreted HBV DNA, read-out: HBV DNA EC50 (converted)): 0.36 nM; EC50 (HBV [9]; with 40% human serum, read-out: HBsAg (40% human serum) EC50 (converted)): 63 nM; EC50 (HBV [9]; read-out: HBeAg EC50 (converted)): 13.7 nM; fraction unbound AB-161 in plasma (C24h) below its EC90 [10]: at least 1 log10; EC50 [11]: > 100 nM
